Experimental data reported in PMC4966929, “Two Distinct Cardiolipin Synthases Operate in Agrobacterium tumefaciens” (PLoS ONE, 2016).

Molecular target: T1, Cls2 (Agrobacterium fabrum, UniProt A9CHR9)
T1 construct: gene cls; native full-length enzyme in A. tumefaciens crude extract (wild type and delta-cls1 lysates, assigned by loss in delta-cls2); about 54 kDa, not purified, no tag
T1 sequence (A9CHR9 1-486): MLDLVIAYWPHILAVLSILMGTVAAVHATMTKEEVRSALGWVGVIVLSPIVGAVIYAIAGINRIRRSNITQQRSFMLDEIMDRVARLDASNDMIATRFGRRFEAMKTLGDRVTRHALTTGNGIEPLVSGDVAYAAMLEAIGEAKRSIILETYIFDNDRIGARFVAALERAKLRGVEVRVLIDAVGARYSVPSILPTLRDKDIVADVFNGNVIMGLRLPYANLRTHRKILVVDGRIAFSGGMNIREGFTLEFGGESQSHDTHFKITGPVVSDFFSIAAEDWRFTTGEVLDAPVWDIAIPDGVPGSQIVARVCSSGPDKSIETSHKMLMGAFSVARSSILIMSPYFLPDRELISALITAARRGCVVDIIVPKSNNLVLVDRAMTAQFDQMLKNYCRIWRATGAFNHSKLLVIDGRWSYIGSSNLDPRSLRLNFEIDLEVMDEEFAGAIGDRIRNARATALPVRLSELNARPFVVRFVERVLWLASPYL
Assay: CL formation in crude extract of wild type and cls deletion strains, lipid extraction, 1D-TLC
Assay type: biochemical
Conditions: 0.4 mM lipid in micellar form, 0.02% Triton X-100, 50 mM Tris/HCl, 50 mM NaCl, pH 8, 30 C, 12 h; 300 ug total protein

CCCCCCCC/C=C\CCCCCCCC(=O)OC[C@H](COP(=O)(O)OCC(O)CO)OC(=O)CCCCCCC/C=C\CCCCCCCC (mixture of isomers) [PG, 1,2-dioleoyl-sn-glycero-3-phospho-rac-(1-glycerol)]
CL formation in crude extract of wild type and cls deletion strains, lipid extra: suggesting that PG-dependent CL accumulation is mediated by Cls2
